Source: patent US20130131321A1, “LIGANDS FOR ANTIBODY AND Fc-FUSION PROTEIN PURIFICATION BY AFFINITY CHROMATOGRAPHY” (GRAFFINITY PHARMACEUTICALS GMBH, priority 2010, published 2013)
Where two headings read alike, the source gives them in different places.

Key:
[1] = target: T1, Bevacizumab (Homo sapiens, UniProt P01857); assay: Microtiter plate chromatography of resins, Bevacizumab whole IgG (bound, yield, selectivity); type: binding, humanized
T1 construct: fused on or other part: humanised anti-VEGF-A VH domain N-terminal of the gamma-1 constant region (engineered, no UniProt entry)

[2] = test system: Bevacizumab; assay: as above; type: binding, humanized
[3] = test system: Tocilizumab; assay: Microtiter plate chromatography of resins, Tocilizumab (bound, yield); type: binding, humanized
[4] = test system: Bevacizumab Fab fragment; assay: Microtiter plate chromatography of resins, Bevacizumab Fab fragment (bound); type: binding, humanized; conditions: Bevacizumab Fab fragment
Experimental: (§1) Resins were assessed in packed mode by microtiter plate chromatography. For each column, approximately 30 μl of resin were transferred to a 384-well filter plate and sealed with appropriate top frits.
(§2) Columns were equilibrated with 6.7 column volumes (cv) of phosphate buffered saline (0.15 M NaCl, 20 mM sodium phosphate, pH 7.3; PBS) prior to injection. Either 3.3 cv of whole IgGs dissolved at 0.75 mg ml^−1, Fab or Fc fragments dissolved at 0.25 mg ml^−1 (all three in PBS) or host cell proteins (HCP) were injected onto columns. Antibody fragments of Bevacizumab (Fab and Fc) were prepared by cleavage of whole IgG with papain protease (3) according to the protocol of the manufacturer. […] Volumes transferred were spun through columns at 50 g for 1-2 min. During injection of samples, acceleration was reduced to 10 g and centrifugation time increased to 5-10 min. Effluent fractions were collected in 384-well plates and concentrations of protein analyzed by Bradford assay. Protein masses mi, mft and me (see below) were calculated as the product of fraction volume and measured protein concentration.
(§3) The fraction of ‘bound’ protein was calculated as the difference between the total mass of protein injected mi and the mass of protein detected in the flowthrough mft, divided by the total mass of protein injected.
(§4) the fraction of ‘bound’ protein and the ‘yield’ of protein were calculated for each resin based on data for whole IgG-antibodies. In the case of Bevacizumab fragments and host cell proteins, only the fraction of ‘bound’ protein is given. Selectivity of resins was calculated from data for Bevacizumab Whole IgG and host cell proteins. Due to limited experimental precision, selectivity was truncated beyond values of 10.

[5] = test system: Bevacizumab Fc fragment; assay: Microtiter plate chromatography of resins, Bevacizumab Fc fragment (bound); type: binding, humanized; conditions: Bevacizumab Fc fragment
Experimental: as §1, §2, §3, §4

[6] = test system: host cell proteins (HCP); assay: Microtiter plate chromatography of resins, host cell proteins (bound); type: binding, CHO
[7] = test system: Palivizumab; assay: Microtiter plate chromatography of resins, Palivizumab (bound, yield); type: binding, humanized
[8] = test system: human poly-IgG (h-poly-IgG); assay: Microtiter plate chromatography of resins, human poly-IgG (bound, yield); type: binding
[9] = target: T1, Bevacizumab; assay: Langmuir isotherms by batch adsorption; type: binding, humanized; conditions: Bevacizumab in PBS pH 7.3, 25° C., at least 3 h
Experimental: Experiments were performed with Bevacizumab as antibody. Parameters of Langmuir isotherms for purified antibody were determined by batch adsorption experiments in 96-well microtiter plates. In each well, 10 μl of sorbent slurry (50% v/v) were mixed with 100 μl of protein solution. Initial concentrations varied from 0.05-5 mg ml^−1 in phosphate-buffered saline (0.15 M NaCl, 20 mM phosphate buffer, pH 7.3; PBS). Reactions were agitated vigorously at 25° C. for at least 3 h. Afterwards, antibody concentration in the supernatents were measured by Bradford assay.
Parameters of Langmuir isotherms, i.e. dissociation constants Kd and maximum capacities qm, were determined from the measured concentrations in supernatants. Parameters were estimated by numerical fitting of the model equation derived by Chase (4).

[10] = fraction of whole IgG Bevacizumab bound to resin
[11] = mass of whole IgG Bevacizumab eluted / mass injected
[12] = fraction of injected whole IgG bound to resin
[13] = mass eluted / mass injected, whole IgG
[14] = fraction of injected protein bound to resin
[15] = fraction of injected host cell proteins bound to resin
[16] = bound Bevacizumab whole IgG / bound HCP, truncated beyond values of 10

COc1ccc(NC(=O)c2cc(-c3cc(Br)cs3)n(C)n2)cc1C(=O)NCCCN [Ligand L2, 5-[5-(4-Bromo-2-thienyl)-1-methylpyrazol-3-yl]carboxamido-2-methoxybenzoic acid N-(3-aminopropyl)amide]
Bevacizumab IgG Bound (%) [1, 10]: 100% | Bevacizumab IgG Yield (%) [1, 11]: 96% | Selectivity [2]: 1.7 | Tocilizumab Bound (%) [3]: 100% | Tocilizumab Yield (%) [3]: 91% | Bevacizumab Fab Bound (%) [4]: 100% | Bevacizumab Fc Bound (%) [5]: 100% | HCP Bound (%) ([6]; host cell proteins): 59%

COc1ccc(NC(=O)c2n[nH]c3ccc(Cl)cc23)cc1C(=O)NCCCN [Ligand L4, 5-(5-Chloro-1H-indazol-3-yl)carboxamido-2-methoxybenzoic acid N-(3-aminopropyl)amide]
Bevacizumab IgG Bound (%) [1, 10]: 100% | Bevacizumab IgG Yield (%) [1, 11]: 98% | Selectivity [2]: 1.8 | Tocilizumab Bound (%) [3]: 100% | Tocilizumab Yield (%) [3]: 93% | Palivizumab Bound (%) [7]: 100% | Palivizumab Yield (%) [7]: 97% | h-poly-IgG Bound (%) [8]: 100% | h-poly-IgG Yield (%) [8]: 83% | Bevacizumab Fab Bound (%) [4]: 38% | Bevacizumab Fc Bound (%) [5]: 100% | HCP Bound (%) ([6]; host cell proteins): 57%

COc1ccc(NC(=O)c2cncc(-c3cccs3)c2)cc1C(=O)NCCCN [Ligand L5, 2-Methoxy-5-[3-(2-thienyl)pyridin-5-yl]carboxamidobenzoic acid N-(3-aminopropyl)amide]
Bevacizumab IgG Bound (%) [1, 10]: 100% | Bevacizumab IgG Yield (%) [1, 11]: 96% | Selectivity [2]: 2.0 | Tocilizumab Bound (%) [3]: 100% | Tocilizumab Yield (%) [3]: 80% | Palivizumab Bound (%) [7]: 71% | Palivizumab Yield (%) [7]: 72% | h-poly-IgG Bound (%) [8]: 97% | h-poly-IgG Yield (%) [8]: 69% | Bevacizumab Fab Bound (%) [4]: 77% | Bevacizumab Fc Bound (%) [5]: 84% | HCP Bound (%) ([6]; host cell proteins): 48%

COc1ccc(NC(=O)c2cc(-c3cccs3)n(C)n2)cc1C(=O)NCCCN [Ligand L6, 2-Methoxy-5-[1-methyl-5-(2-thienyl)pyrazol-3-yl]carboxamidobenzoic acid N-(3-aminopropyl)amide]
Bevacizumab IgG Bound (%) [1, 10]: 100% | Bevacizumab IgG Yield (%) [1, 11]: 100% | Selectivity [2]: 2.0 | Tocilizumab Bound (%) [3]: 100% | Tocilizumab Yield (%) [3]: 102% | Palivizumab Bound (%) [7]: 98% | Palivizumab Yield (%) [7]: 100% | h-poly-IgG Bound (%) [8]: 94% | h-poly-IgG Yield (%) [8]: 100% | Bevacizumab Fab Bound (%) [4]: 79% | Bevacizumab Fc Bound (%) [5]: 100% | HCP Bound (%) ([6]; host cell proteins): 54%

COc1ccc(NC(=O)c2cc(-c3ccsc3)n(C)n2)cc1C(=O)NCCCN [Ligand L8, 2-Methoxy-5-[1-methyl-5-(3-thienyl)pyrazol-3-yl]carboxamidobenzoic acid N-(3-aminopropyl)amide]
Bevacizumab IgG Bound (%) [1, 10]: 100% | Bevacizumab IgG Yield (%) [1, 11]: 96% | Selectivity [2]: 2.3 | Tocilizumab Bound (%) [3]: 100% | Tocilizumab Yield (%) [3]: 97% | Palivizumab Bound (%) [7]: 100% | Palivizumab Yield (%) [7]: 89% | h-poly-IgG Bound (%) [8]: 100% | h-poly-IgG Yield (%) [8]: 86% | Bevacizumab Fab Bound (%) [4]: 82% | Bevacizumab Fc Bound (%) [5]: 99% | HCP Bound (%) ([6]; host cell proteins): 44%

Cn1nc(C(=O)Nc2cccc(C(=O)NCCCN)c2)cc1-c1ccco1 [Ligand L17, 3-[5-(2-Furyl)-1-methylpyrazol-3-yl]carboxamidobenzoic acid N-(3-aminopropyl)amide]
Bevacizumab IgG Bound (%) [1, 10]: 100% | Bevacizumab IgG Yield (%) [1, 11]: 94% | Tocilizumab Bound (%) [3]: 97% | Tocilizumab Yield (%) [3]: 89% | Palivizumab Bound (%) [7]: 81% | Palivizumab Yield (%) [7]: 70% | h-poly-IgG Bound (%) [8]: 91% | h-poly-IgG Yield (%) [8]: 87% | HCP Bound (%) ([6]; host cell proteins): 36% | qm (maximum capacity, Langmuir isotherm) [9]: 26 mg per ml resin

NCCCNC(=O)c1cccc(C(=O)Nc2nc3ccccc3s2)c1 [Ligand L72, Isophthalic acid N-(3-aminopropyl)-N′-(benzothiazol-2-yl)amide]
Bevacizumab IgG Bound (%) [1, 12]: 100% | Bevacizumab IgG Yield (%) [1, 13]: 83% | Selectivity [2]: 2.5 | Tocilizumab Bound (%) [3, 14]: 93% | Tocilizumab Yield (%) ([3]; mass eluted / mass injected): 93% | Palivizumab Bound (%) [7, 14]: 91% | Palivizumab Yield (%) ([7]; mass eluted / mass injected): 91% | h-poly-IgG Bound (%) [8, 14]: 90% | h-poly-IgG Yield (%) ([8]; mass eluted / mass injected): 90% | HCP Bound (%) [6, 15]: 40%

NCCCNC(=O)c1cccc(C(=O)Nc2nc(-c3ccccc3)cs2)c1 [Ligand L73, Isophthalic acid N-(3-aminopropyl)-N′-(4-phenylthiazol-2-yl)amide]
Bevacizumab IgG Bound (%) [1, 12]: 100% | Bevacizumab IgG Yield (%) [1, 13]: 92% | Selectivity [2]: 1.9 | Tocilizumab Bound (%) [3, 14]: 97% | Tocilizumab Yield (%) ([3]; mass eluted / mass injected): 95% | Palivizumab Bound (%) [7, 14]: 87% | Palivizumab Yield (%) ([7]; mass eluted / mass injected): 87% | h-poly-IgG Bound (%) [8, 14]: 92% | h-poly-IgG Yield (%) ([8]; mass eluted / mass injected): 87% | HCP Bound (%) [6, 15]: 52%

NCCCNC(=O)c1cccc(C(=O)Nc2ncc(-c3ccccc3)s2)c1 [Ligand L74, Isophthalic acid N-(3-aminopropyl)-N′-(5-phenylthiazol-2-yl)amide]
Bevacizumab IgG Bound (%) [1, 12]: 100% | Bevacizumab IgG Yield (%) [1, 13]: 96% | Selectivity [2]: 1.9 | Tocilizumab Bound (%) [3, 14]: 97% | Tocilizumab Yield (%) ([3]; mass eluted / mass injected): 91% | Palivizumab Bound (%) [7, 14]: 88% | Palivizumab Yield (%) ([7]; mass eluted / mass injected): 86% | h-poly-IgG Bound (%) [8, 14]: 91% | h-poly-IgG Yield (%) ([8]; mass eluted / mass injected): 90% | HCP Bound (%) [6, 15]: 53%

COc1ccc(NC(=O)c2cn3ccsc3n2)cc1C(=O)NCCCNC(=O)CCCCCN [Ligand L75, 5-(Imidazo[2,1-b]thiazol-6-ylcarboxamido)-2-methoxybenzoic acid [3-(6-aminohexanoylamido)-1-propyl]amide]
Bevacizumab IgG Bound (%) [1, 12]: 100% | Bevacizumab IgG Yield (%) [1, 13]: 97% | Selectivity [2]: 5.7 | Tocilizumab Bound (%) [3, 14]: 100% | Tocilizumab Yield (%) ([3]; mass eluted / mass injected): 98% | Palivizumab Bound (%) [7, 14]: 91% | Palivizumab Yield (%) ([7]; mass eluted / mass injected): 91% | h-poly-IgG Bound (%) [8, 14]: 90% | h-poly-IgG Yield (%) ([8]; mass eluted / mass injected): 90% | HCP Bound (%) [6, 15]: 18%

COc1ccc(NC(=O)c2cn3ccsc3n2)cc1C(=O)NCCCCCC(=O)NCCOCCOCCN [Ligand L76, 6-[5-(Imidazo[2,1-b]thiazol-6-ylcarboxamido)-2-methoxyphenylcarboxamido]hexanoic acid (8-amino-3,6-dioxa-1-octyl)amide]
Bevacizumab IgG Bound (%) [1, 12]: 100% | Bevacizumab IgG Yield (%) [1, 13]: 98% | Selectivity [2, 16]: 10.0 | Tocilizumab Bound (%) [3, 14]: 93% | Tocilizumab Yield (%) ([3]; mass eluted / mass injected): 89% | Palivizumab Bound (%) [7, 14]: 59% | Palivizumab Yield (%) ([7]; mass eluted / mass injected): 59% | h-poly-IgG Bound (%) [8, 14]: 73% | h-poly-IgG Yield (%) ([8]; mass eluted / mass injected): 73% | HCP Bound (%) [6, 15]: 9%

COc1ccc(NC(=O)c2cn3ccsc3n2)cc1C(=O)NCCOCCOCC(=O)NCCCN [Ligand L77, 8-[5-(Imidazo-[2,1-b]thiazol-6-ylcarboxamido)-2-methoxyphenylcarboxamido]-3,6-dioxaoctanoic acid (3-amino-1-propyl)amide]
Bevacizumab IgG Bound (%) [1, 12]: 100% | Bevacizumab IgG Yield (%) [1, 13]: 96% | Selectivity [2, 16]: 10.0 | Tocilizumab Bound (%) [3, 14]: 80% | Tocilizumab Yield (%) ([3]; mass eluted / mass injected): 80% | Palivizumab Bound (%) [7, 14]: 55% | Palivizumab Yield (%) ([7]; mass eluted / mass injected): 55% | h-poly-IgG Bound (%) [8, 14]: 65% | h-poly-IgG Yield (%) ([8]; mass eluted / mass injected): 65% | HCP Bound (%) [6, 15]: 10%

COc1ccc(NC(=O)c2cn3ccsc3n2)cc1C(=O)NCCOCCOCC(=O)NCCCCCCN [Ligand L78, 8-[5-(Imidazo-[2,1-b]thiazol-6-ylcarboxamido)-2-methoxyphenylcarboxamido]-3,6-dioxaoctanoic acid (6-amino-1-hexyl)amide]
Bevacizumab IgG Bound (%) [1, 12]: 100% | Bevacizumab IgG Yield (%) [1, 13]: 94% | Selectivity [2]: 7.4 | Tocilizumab Bound (%) [3, 14]: 94% | Tocilizumab Yield (%) ([3]; mass eluted / mass injected): 94% | Palivizumab Bound (%) [7, 14]: 61% | Palivizumab Yield (%) ([7]; mass eluted / mass injected): 61% | h-poly-IgG Bound (%) [8, 14]: 76% | h-poly-IgG Yield (%) ([8]; mass eluted / mass injected): 76% | HCP Bound (%) [6, 15]: 14%
